For data set [1], the system named is Neuron. The data set is described as follows: Neuroprotective activity against degeneration of rat DA neurons assessed as […] immunopositive neurons at 10 nM by immunofluorescence staining relative to control. The class given is functional.
Data set [2] relates to Neuron. The data set is described as follows: Neuritogenic effect in rat DA neurons assessed as total neurite length per […] immunopositive neurons at 10 nM relative to control. Type of data set: functional.
Data set [3] is described as follows: Antioxidant activity assessed as ABTS radical scavenging activity. Type of data set: functional.
The subject of data set [4] is Neuron. The data set is described as follows: Antioxidant activity in mesecephalic neuron assessed as ROS production at 10 nM by dihydrorhodamine-123 incorporation assay relative to control. The class given is functional.
The species entered for another data set is Mus musculus. As to the kind of experiment: Toxicity in Swiss mouse assessed as change in body weight, food intake. Type of data set: organism-based. The conditions noted are these: in vivo.
A further data set relates to Brain. The data set is described as follows: Biodistribution in Swiss mouse brain at 150 mg/kg, iv. The conditions noted are these: in vivo. Further details: dose 150 mg/kg, route intravenous. Type of data set: ADME, organism-based.
Data set [5] concerns Neuron. As to the kind of experiment: Neuritogenic effect in rat DA neurons assessed as total neurite length per […] immunopositive neurons at 200 nM relative to control. Type of data set: functional.
In data set [6] the test system is Neuron. The data set is described as follows: Neuroprotective activity against degeneration of rat DA neurons assessed as […] immunopositive neurons immunofluorescence staining at 200 nM relative to control. The class given is functional.
Data set [7] relates to Neuron. The data set is described as follows: Antioxidant activity in mesecephalic neuron assessed as ROS production at 10 uM by dihydrorhodamine-123 incorporation assay relative to control. Type of data set: functional.

Regarding `CCCCCCCCCCCCCCC(=O)NCCc1c[nH]c2ccccc12`, the Activity is listed as 99.3% with Neuron [1] and 139% with Neuron [2].
For orientation: IC50 means the concentration that gives 50% inhibition. As for `CCCCCCCCCCCCCNCCc1c[nH]c2ccccc12`, the IC50 in data set [3] was 810 µM. Also, the figures for the Activity with Neuron [1] and in the data set with Neuron [2] were 92.8% and 121.2%, respectively.
In the case of `O=C(CCCCCCCCCCCCCCO)NCCc1c[nH]c2ccccc12`, the Activity with Neuron [4] is given as 60.9%; with Neuron [1], 108%; in the data set with Neuron [2], 159.3%. Further, the IC50 in data set [3] is > 1000 µM.
`CCCCC/C=C\C/C=C\CCCCCCCC(=O)NCCc1c[nH]c2ccccc12`: the figures for the Activity with Neuron [4], in the data set on Neuron [1] and in the data set with Neuron [2] were 56.5%, 111.4% and 154%, respectively.
Consider `CCCCCCCCCCCCCCCCC(=O)NCCc1c[nH]c2ccccc12`, for which the Activity with Neuron [1] turned out to be 106%; in the data set on Neuron [2] it was 136%.
As to `CCCCCCCCCCCCCCCCCCCCCCCNCCc1c[nH]c2ccccc12`, in data set [3], the half-inhibitory concentration (IC50) is 670 µM. The Activity in the data set on Neuron [1] is on record as 129.6%; in the data set with Neuron [2], 141.2%.
For `CCCCC/C=C\C/C=C\CCCCCCCCNCCc1c[nH]c2ccccc12`, the Activity came to 44% with Neuron [4], 137.5% in the data set on Neuron [1] and 156.7% in the data set with Neuron [2]. Moreover, the IC50 in data set [3] was found to be 340 µM.
As to `CCCCCCCCCCCCCCCNCCc1c[nH]c2ccccc12`, the figures for the Activity in the data set on Neuron [1] and in the data set on Neuron [2] were 106% and 132.7%, respectively.
For `CCCCCCCCCCCCCCCCNCCc1c[nH]c2ccccc12`, the Activity result is reported as “Non-toxic” in the data set filed under Mus musculus, 47.8% with Neuron [4], 131.9% in the data set with Neuron [1] and 197% in the data set on Neuron [2]. Further, the IC50 in [3] amounted to 620 µM. Also, the Drug uptake in the data set with Brain came out at 21.8 ng/mL.
On to `CCCCCCCCCCCCCCCCCCCCNCCc1c[nH]c2ccccc12`, for which the values for the Activity in the data set with Neuron [1] and with Neuron [2] were 128.9% and 132.6%, respectively.
Take `CCCCCCCCCCCCCCCCCNCCc1c[nH]c2ccccc12`: the results for the Activity with Neuron [1] and in the data set on Neuron [2] were 110.6% and 139%, respectively.
On the same counts, the results for `CCCCCCCCCCCCCCCCCCNCCc1c[nH]c2ccccc12` are 129.9% and 157.3%.
`OCCCCCCCCCCCCCCCNCCc1c[nH]c2ccccc12`: the Activity in the data set with Neuron [4] was determined as 43.7%; in the data set with Neuron [1] it was 129.4%; in the data set with Neuron [2] it was 160.8%. Further, the IC50 in data set [3] turned out to be 730 µM.
`CCCCCCCCCCCCC(=O)NCCc1c[nH]c2ccccc12`: in data set [3], the IC50 is > 1000 µM. The results for the Activity with Neuron [1] and in the data set with Neuron [2] were 98.5% and 126.2%, respectively.
For the molecule `CCCCCCCCCCCCCCCCCCCCCCC(=O)NCCc1c[nH]c2ccccc12`, the Activity in the data set with Neuron [1] is 114%; in the data set with Neuron [2] it was 145.4%.
For `CCCCCCCCCCCCCCCC(=O)NCCc1c[nH]c2ccccc12`, the values for the Activity in the data set on Neuron [4], in the data set on Neuron [1] and in the data set on Neuron [2] were 55.9%, 121.3% and 168.6%, respectively. For the same molecule, in data set [3], the concentration for half-maximal inhibition (IC50) was > 1000 µM.
For the molecule `CCCCCCCCCCCCCCCCCC(=O)NCCc1c[nH]c2ccccc12`, the Activity in the data set on Neuron [1] came to 110%; in the data set on Neuron [2] it was 149.9%.
For `CCCCCCCCCCCCCCCCCCCC(=O)NCCc1c[nH]c2ccccc12`, the Activity was found to be 121.8% in the data set with Neuron [1] and 147.4% in the data set on Neuron [2].
As for `CCCC(=O)Nc1ncnc2c1ncn2[C@@H]1O[C@@H]2COP(=O)(O)O[C@H]2[C@H]1OC(=O)CCC` [BUCLADESINE], the results for the Activity in the data set with Neuron [5] and in the data set on Neuron [6] were 333.1% and 149.9%, respectively.
Take `Cc1c(C)c2c(c(C)c1O)CCC(C)(C(=O)O)O2` (stereo unspecified) [TROLOX]: the Activity in the data set with Neuron [7] amounted to 44%. For the same molecule, the IC50 in data set [3] was 550 µM.

Values taken from ChEMBL document CHEMBL1177677, “Tryptamine-derived alkaloids from Annonaceae exerting neurotrophin-like properties on primary dopaminergic neurons” (Bioorg Med Chem, 2010).
